According to US20220074941A1, “HSP90 COMBINATION THERAPY” (Sloan-Kettering Institute for Cancer Research, priority 2011, published 2022):
“Also recorded” adds a separate entry of the source.

Key:
[1] = test system: Hsp90 from SKBr3 cellular extracts; test: Fluorescence polarization (FP) competition assay with GM-cy3B; format: binding; settings: FP competition with GM-cy3B, SKBr3 lysate, 4° C. for 24 h; read-out: IC50 (nM), binding affinity for Hsp90 from SKBr3 cellular extracts
Source text: The attachment of small molecules to a solid support is a very useful method to probe their target and the target's interacting partners. […] Perhaps the most crucial aspects in designing such chemical probes are determining the appropriate site for attachment of the small molecule ligand, and designing an appropriate linker between the molecule and the solid support. Our strategy to design Hsp90 chemical probes entails several steps. First, in order to validate the optimal linker length and its site of attachment to the Hsp90 ligand, the linker-modified ligand was docked onto an appropriate X-ray crystal structure of Hsp90α. Second, the linker-modified ligand was evaluated in a fluorescent polarization (FP) assay that measures competitive binding to Hsp90 derived from a cancer cell extract. […] These steps are important to ensure that the solid-support immobilized molecules maintain a strong affinity for Hsp90. Finally, the linker-modified small molecule was attached to the solid support, and its interaction with Hsp90 was validated by incubation with an Hsp90-containing cell extract.
Briefly, FP measurements were performed on an Analyst GT instrument (Molecular Devices, Sunnyvale, Calif.). […] Drugs were added in triplicate wells. […] The assay plate was incubated on a shaker at 4° C. for 24 h and the FP values in mP were measured. The fraction of tracer bound to Hsp90 was correlated to the mP value and plotted against values of competitor concentrations. […] All experimental data were analyzed using SOFTmax Pro 4.3.1 and plotted using Prism 4.0 (Graphpad Software Inc., San Diego, Calif.).

[2] = molecular target: T1, cell surface Hsp90 in MV4-11 leukemia cells (Homo sapiens, UniProt P07900); test: Flow cytometry detection of cell surface Hsp90 with PU-H71-biotin; format: cell-based; settings: MV4-11 cells, 2 h at 37° C., SA-PE staining
T1 construct: specifically detect Hsp90 when expressed on the cell surface; endogenous in cells; host or cells: MV4-11 live cells
Source text: FIGS. 29a and 29b. A) Hsp90-containing protein complexes from the brains of JNPL3 mice, an Alzheimer's disease transgenic mouse model, isolated through chemical precipitation with beads containing a streptavidin-immobilized PU-H71-biotin construct or control streptavidin-immobilized D-biotin. Aberrant tau species are indicated by arrow. c1, c2 and s1, s2, cortical and subcortical brain homogenates, respectively, extracted from 6-month-old female JNPL3 mice (Right). Western blot analysis of brain lysate protein content (Left). B) Cell surface Hsp90 in MV4-11 leukemia cells as detected by PU-H71-biotin. The data are consistent with those obtained from multiple repeat experiments (n 2′: 2).
Cells were then analyzed using the BD-LSRII flow cytometer. Mean fluorescence intensity (MFI) was used to calculate the binding of PU-H71-biotin to cells and values were normalized to the MFI of untreated cells stained with SA-PE.

[3] = test system: OCI-LYI, OCI-LY7, Farage and SUDHL6 DLBCL cells; test: Combination of PU-H71 with SYK inhibitor in DLBCL cells; format: cell-based
DLBCL cell lines = settings: literature; cited from earlier work
K562 cells [4] = test: Alamar Blue cell growth assay; format: cell-based; settings: K562, 72 h
Description: (§1) FIGS. 7a-7g. PU-H71 identified proteins and networks are those important for the malignant phenotype. (a) K562 cells were treated for 72 h with the indicated inhibitors and cell growth analyzed by the Alamar Blue assay. Data are presented as means±SD (n=3). (b) Sequential chemical-precipitations, as indicated, were conducted in K562 extracts with the PU-beads at the indicated frequency. Proteins in the pull-downs and in the remaining supernatant were analyzed by WB. (c) The effect of CARMI knock-down on cell viability using Tryptan blue (left) or Acridine orange/Ethidium bromide (right) stainings was evaluated in K562 cells. (d) The expression of select potential Hsp90-interacting proteins was analyzed by WB in K562 leukemia and Mia-PaCa-2 pancreatic cancer cells. […] Proteins in the pull-downs were analyzed by WB. (g) The effect of select inhibitors on Mia-PaCa-2 cell growth was analyzed as in panel (a).
(§2) Viability assessment in K562 cells untransfected or transfected with CARMI shRNA or scramble was performed using Trypan Blue. […] Apoptosis analysis was assessed using fluorescence microscopy by mixing 2 μL of acridine orange (100 μg/mL), 2 μL of ethidium bromide (100 μg/mL), and 20 μL of the cell suspension. A minimum of 200 cells was counted in at least five random fields. […] Results were analyzed using the Softmax Pro and the GraphPad Prism softwares. […]

Mia-PaCa-2 cells = test: Alamar Blue cell growth assay; format: cell-based, human; settings: Mia-PaCa-2, 72 h
Description: as §1, §2

K562 cells [5] = test: Western blot of proteins in treated K562 cells; format: cell-based; settings: PU-H71 5 μM or Gleevec 0.5 μM, time course
Description: FIGS. 5a-5f. […] (a) Hsp90 complexes in K562 extracts were isolated by precipitation with H9010, a non-specific IgG, or by PU-H71- or Control-beads. Control beads contain ethanolamine, an Hsp90-inert molecule. Proteins in pull-downs were analyzed by Western blot. (b,c) Single or sequential immuno- and chemical-precipitations, as indicated, were conducted in K562 extracts with H9010 and PU-beads at the indicated frequency and in the shown sequence. Proteins in the pull-downs and in the remaining supernatant were analyzed by WB. NS=non-specific. […] (e) Expression of proteins in Hsp70-knocked-down cells was analyzed by Western blot (left) and changes in protein levels presented in relative luminescence units (RLU) (right). Control=scramble siRNA. […] Proteins in the pull-downs and in the remaining supernatant were analyzed by Western blot. […]
FIGS. 8a-8h. […] Proteins in the pull-downs and in the remaining supernatant were analyzed by WB. […] Proteins were analyzed by WB (upper), quantified by densitometry and graphed against treatment time (lower). […] (f) Quantitative chromatin immunoprecipitation assays (QChIP) performed with STAT5 or Hsp90 antibodies vs. IgG control for two known STAT5 target genes (CCND2 and […]).
Protein concentrations were determined using BCA kit (Pierce) according to the manufacturer's instructions. […]

K562 CML cells = test: Drug combination with PU-H71 in CML cells; format: cell-based
Source text: Since single agent therapy is not likely to be curative in cancer, it is necessary to design rational combinatorial therapy approaches. Proteomic identification of oncogenic Hsp90-scaffolded signaling networks may identify additional oncoproteins that could be further targeted using specific small molecule inhibitors.

DLBCL patients = settings: Phase II; cited from earlier work
[6] = test system: patients with advanced pancreatic cancer; settings: cited from earlier work
[7] = test system: HCC1937 breast cancer cells; test: Clonogenic survival, combination with PU-H71; format: cell-based
Source text: (§3) Specifically, among the Hsp90-regulated pathways identified in the K562 CML cells, MDA-MB-468 breast cancer cells and the Mia-PaCa-2 pancreatic cancer cells are several involved in DNA damage, replication and repair response and/or homologous recombination (Tables 3, 5a-5f). Hsp90 inhibition may synergize or be additive with agents that act on DNA damage and/or homologous recombination (i.e. potentiate DNA damage sustained post treatment with IR/chemotherapy or other agents, such as PARP inhibitors that act on the proteins that are important for the repair of double-strand DNA breaks by the error-free homologous recombinational repair pathway).

[8] = test system: MDA-MB-468 breast cancer cells; test: Clonogenic survival, combination with PU-H71; format: cell-based; settings: MDA-MB-468, combination with PU-H71
Source text: as §3

SMILES: Nc1ncnc2c1nc(Sc1cc3c(cc1I)OCO3)n2CCCNCCOCCOCCOCCNC(=O)CCCC[C@@H]1SC[C@@H]2NC(=O)N[C@@H]21 [Compound 7]
- IC50 [1]: 67.1 nM
- detection of Hsp90 on the cell surface [2]: can detect Hsp90 expression on the surface of leukemia cells

SMILES: COc1cc(Nc2ncc(F)c(Nc3ccc4c(n3)NC(=O)C(C)(C)O4)n2)cc(OC)c1OC [Compound R406]
- efficacy of combination with PU-H71 versus each inhibitor alone [3]: synergizes; also recorded: more efficacious
- effect on DLBCL cell lines (DLBCL cell lines): blocks proliferation and induces apoptosis

SMILES: Cc1ccc(NC(=O)c2ccc(CN3CCN(C)CC3)cc2)cc1Nc1nccc(-c2cccnc2)n1 [Gleevec]
- effect on cell growth (K562 cells [4]): toxic only to K562 cells
- effect on cell growth (Mia-PaCa-2 cells): toxic only to K562 cells
- STAT5 phosphorylation (p-STAT5 levels) (K562 cells [5]): rapidly decreased

SMILES: COc1ccc(S(=O)(=O)N(CCO)c2ccccc2CN(C)C/C=C/c2ccc(Cl)cc2)cc1 [KN93]
- drug interaction with Hsp90 inhibitor PU-H71 (K562 CML cells): synergize

SMILES: CC(C)n1nc(-c2cc3cc(O)ccc3[nH]2)c2c(N)ncnc21 [PP242]
- effect on cell growth (K562 cells [4]): toxic to both cells
- effect on cell growth (Mia-PaCa-2 cells): toxic to both cells

SMILES: CO[C@H]1C[C@@H]2CC[C@@H](C)[C@@](O)(O2)C(=O)C(=O)N2CCCC[C@H]2C(=O)O[C@H]([C@H](C)C[C@@H]2CC[C@@H](OCCO)[C@H](OC)C2)CC(=O)[C@H](C)/C=C(\C)[C@@H](O)[C@@H](OC)C(=O)[C@H](C)C[C@H](C)/C=C/C=C/C=C/1C [everolimus]
- ORR (DLBCL patients): 35%

SMILES: Nc1ccn([C@@H]2O[C@H](CO)[C@@H](O)C2(F)F)c(=O)n1 [gemcitabine]
- median survival [6]: approximately 6 months

SMILES: O=C(c1cc(Cc2n[nH]c(=O)c3ccccc23)ccc1F)N1CCN(C(=O)C2CC2)CC1 [olaparib]
- drug interaction with PU-H71 in inhibiting clonogenic survival [7]: synergizes
- drug interaction with PU-H71 in inhibiting clonogenic survival [8]: synergizes
